In experiment [1] the target is T1, human D2 receptor (CHO-D2R) (Homo sapiens, UniProt P14416). The experiment in a line: ERK1/2 phosphorylation. The conditions noted are these: CHO-D2R cells, 1 μM, 5 min. The experiment is classed as cell-based.
Experiment [2] addresses T2, human D4 receptor (HEK-D4R) (Homo sapiens, UniProt P21917).
T2 sequence (P21917 1-419): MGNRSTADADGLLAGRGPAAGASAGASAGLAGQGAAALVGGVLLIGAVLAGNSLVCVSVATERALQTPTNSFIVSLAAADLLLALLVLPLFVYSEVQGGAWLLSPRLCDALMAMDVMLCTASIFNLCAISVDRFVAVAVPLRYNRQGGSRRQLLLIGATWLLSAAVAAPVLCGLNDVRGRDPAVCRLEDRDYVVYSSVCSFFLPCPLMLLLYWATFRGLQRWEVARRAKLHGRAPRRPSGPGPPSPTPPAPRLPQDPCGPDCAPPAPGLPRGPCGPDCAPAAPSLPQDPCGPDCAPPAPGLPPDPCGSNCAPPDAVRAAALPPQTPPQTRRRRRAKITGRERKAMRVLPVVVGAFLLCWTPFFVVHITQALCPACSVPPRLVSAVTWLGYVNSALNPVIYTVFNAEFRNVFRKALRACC
The experiment in a line: [3H]methylspiperone binding screening at HEK-D4R. The conditions noted are these: 10 μM.

Experiment [3] deals with T1, human D2 receptor (CHO-D2R). In words: Agonist-induced [35S]GTPγS binding to CHO-D2R membranes. The experiment is classed as biochemical. (In general: GTPγS resists hydrolysis and so accumulates on activated G proteins.)
A further experiment deals with hD3R (Homo sapiens, UniProt P35462). In words: PathHunter eXpress U2OS D3R β-arrestin-2 recruitment assay. The experiment is classed as cell-based. Background: Arrestin recruitment assays detect the binding of arrestin to an activated receptor.
Experiment [4] has as its target T3, human D3 receptor (CHO-D3R) (Homo sapiens, UniProt P35462). The experiment in a line: [3H]methylspiperone binding to CHO-D3R membranes. Particulars: for Ki: [3H]methylspiperone competition, two-site analysis.
Experiment [5] deals with T3, human D3 receptor (CHO-D3R). The experiment in a line: ERK1/2 phosphorylation. Particulars: for ERK1/2 phosphorylation, functional screening (result in words): CHO-D3R cells, 5 min. The experiment is classed as cell-based.
Experiment [6] shares this target. In words: Agonist-induced [35S]GTPγS binding to CHO-D3R membranes. The experiment is classed as biochemical.
For experiment [7], the target named is T1, human D2 receptor (CHO-D2R). The experiment in a line: [3H]methylspiperone binding to CHO-D2R membranes. The conditions noted are these: 10 μM; for Affinity to D2R, high-affinity state (result in words): CHO-D2R membranes pretreated with GDP and Na+, Mg2+ buffer; for Binding to D2R in binding screening (result in words): CHO-D2R, regular binding buffer.
Experiment [8] deals with human D3 receptor (HEK-D3R) (Homo sapiens, UniProt P35462). The experiment is classed as cell-based. Particulars: 1 μM 30 min pretreatment, washes, 1 μM 2 min.

The values below come from paper PMC5813806 (ACS chemical neuroscience, 2016).

Values joined by “and” are separate entries in the source; they are usually repeats but may differ in a detail not shown here. Equal values may be shown once. Read-outs that look alike come from different tables or passages of the source.

T1 sequence (P14416 whole entry): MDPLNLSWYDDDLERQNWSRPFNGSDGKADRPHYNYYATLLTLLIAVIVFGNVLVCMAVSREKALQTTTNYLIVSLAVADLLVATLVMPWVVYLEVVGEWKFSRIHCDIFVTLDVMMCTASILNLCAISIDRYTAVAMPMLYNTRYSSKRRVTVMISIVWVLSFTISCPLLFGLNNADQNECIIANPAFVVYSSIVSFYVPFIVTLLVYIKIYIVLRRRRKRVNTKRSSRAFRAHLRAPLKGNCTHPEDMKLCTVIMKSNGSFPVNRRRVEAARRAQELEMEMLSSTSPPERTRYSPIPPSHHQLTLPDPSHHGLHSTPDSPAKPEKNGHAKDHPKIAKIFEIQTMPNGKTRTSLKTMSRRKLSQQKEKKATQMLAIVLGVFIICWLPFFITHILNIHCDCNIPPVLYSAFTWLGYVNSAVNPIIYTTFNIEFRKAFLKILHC
T3 sequence (P35462 whole entry): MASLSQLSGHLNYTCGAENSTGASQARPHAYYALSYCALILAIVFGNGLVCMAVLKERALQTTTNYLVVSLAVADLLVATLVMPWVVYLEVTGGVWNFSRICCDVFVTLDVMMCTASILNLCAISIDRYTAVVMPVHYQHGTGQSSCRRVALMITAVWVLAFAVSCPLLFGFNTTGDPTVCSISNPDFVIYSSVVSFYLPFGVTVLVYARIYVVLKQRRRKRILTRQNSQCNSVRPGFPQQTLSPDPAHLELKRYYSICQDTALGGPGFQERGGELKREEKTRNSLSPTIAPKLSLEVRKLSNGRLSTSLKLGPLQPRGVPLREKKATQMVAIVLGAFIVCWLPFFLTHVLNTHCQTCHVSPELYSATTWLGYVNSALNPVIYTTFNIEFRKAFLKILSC
Sequence of hD3R (P35462 whole entry): as above
Sequence of human D3 receptor (HEK-D3R) (P35462 whole entry): as above

One may read the Ki as the equilibrium dissociation constant of an inhibitor or competing ligand from its target. As usually defined, the IC50 is the concentration needed to halve the response being measured. `CCCN1CCO[C@@H]2c3cc(O)ccc3OC[C@H]21` [PD128907]: the “ERK1/2 phosphorylation, functional screening (result in words)” value (from here on “ERK1/2 phosphorylation … (result in words)”) is recorded as “significantly evoked ERK1/2 phosphorylation” in [1] and “significantly activated ERK1/2 phosphorylation” in experiment [5] (1 μM). The “Binding to D4R in binding screening (result in words)” value in experiment [2] is “high binding affinity”. Further, the “[35S]GTPγS binding Emax” value in [3] (D2R, DA effect defined as 100%) is 92.8 ± 1.7 % of DA; in experiment [6] (DA effect defined as 100%), 95.1 ± 2.1 % of DA. For the same compound, the EC50 in experiment [3] (read-out: [35S]GTPγS binding EC50, D2R (CHO-D2R membranes)) was 103 ± 29.6 nM; at hD3R (read-out: β-arrestin recruitment EC50, 90 min stimulation) it was 5.5 ± 0.18 nM; in [5] (read-out: ERK1/2 phosphorylation EC50, CHO-D3R cells treated 5 min at 37 °C), 7.1 ± 0.5 nM; in experiment [6] (read-out: [35S]GTPγS binding EC50), 1.19 nM and 1.2 nM. Further, the “β-arrestin recruitment Emax” value on hD3R (perhaps underestimates from incomplete curves) is recorded as 100 % of PD128907. Besides, the “Binding to D3R in binding screening (result in words)” value in experiment [4] (CHO-D3R, 10 μM) is on record as “high binding affinity”. Further, the results for the Ki in [4] (read-out: Ki-H (high-affinity Ki) to CHO-hD3) and in experiment [4] (read-out: Ki-L (low-affinity Ki) to CHO-hD3) were 3.7 ± 1.6 nM and 14.6 ± 3.6 nM, respectively. Also, the “ERK1/2 phosphorylation Emax” value in [5] (CHO-D3R cells treated 5 min at 37 °C, DA = 100) turned out to be 100. Moreover, in experiment [7], the “Affinity to D2R, high-affinity state (result in words)” value is on record as “higher affinity for D2R than in the regular binding buffer”. Besides, the “Binding to D2R in binding screening (result in words)” value in [7] was “high binding affinity”. In experiment [7] (read-out: IC50 for D2R binding, low-affinity state, CHO-D2R in Na+-GTPγS binding buffer), the IC50 is > 10000 nM. For the same compound, in experiment [8], the “Desensitization of D3R/ERK1/2 signaling on repeated treatment” value is “significant reduction of ERK1/2 phosphorylation signal”.
Turning to `CC(N)CCc1ccco1` (centres unmarked) [SK603, 4-(fluran-2-yl)butan-2-amine], the “ERK1/2 phosphorylation … (result in words)” value in experiment [5] (1 μM) is “reduction in functional effect”. Also, the “Selectivity to D3R in ERK1/2 activation” value in experiment [5] (CHO-D3R versus CHO-D2R cells, 1 μM) is “maintained selectivity to D3R”.
Regarding `NCCc1ccc(O)c(O)c1` [DA, dopamine], in experiment [1], the “ERK1/2 phosphorylation … (result in words)” value was “significantly evoked ERK1/2 phosphorylation”. In experiment [7], the “Affinity to D2R, high-affinity state (result in words)” value is on record as “higher affinity for D2R than in the regular binding buffer” and the “Binding to D2R in binding screening (result in words)” value is on record as “high binding affinity”.
